In patent US20180099931A1 (AbbVie S.à.r.l., priority 2016, published 2018):
Read-outs that look alike come from different tables or passages of the source.

Target: T1, F508delCFTR (Homo sapiens, UniProt P13569, DEL508-508)
T1 construct: expressed in transfected cells; host or cells: CFBE41o- human lung-derived epithelial cells (CFBE4lo-F508delCFTR-HRP), doxycycline-inducible
Assay: Cell Surface Expression-Horse Radish Peroxidase (CSE-HRP) Assay;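 on Maximum % activity (with co-corrector): co-corrector and positive control are both the same reference corrector at 2 µM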;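 on Maximum % activity (without co-corrector): percent of the 2 µM on-plate positive control corrector response above DMSO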
Assay type: cell-based
Details: for Maximum % activity (with co-corrector) / Emax: maximum at any tested concentration, normalized to on-plate positive control; for Emax: read-out: Maximum % activity (without co-corrector)

[1] = test compound without co-corrector, read-out: EC50 (without co-corrector)
[2] = with co-corrector (2 μM of 3-[(2R,4R)-4-({[1-(2,2-difluoro-1,3-benzodioxol-5-yl)cyclopropyl]carbonyl}amino)-7-methoxy-3,4-dihydro-2H-chromen-2-yl]benzoic acid), read-out: EC50 (with co-corrector)
[3] = CSE-HRP, test compound without co-corrector, read-out: EC50 (without co-corrector)
[4] = CSE-HRP, with co-corrector (2 μM of 3-[(2R,4R)-4-({[1-(2,2-difluoro-1,3-benzodioxol-5-yl)cyclopropyl]carbonyl}amino)-7-methoxy-3,4-dihydro-2H-chromen-2-yl]benzoic acid), read-out: EC50 (with co-corrector)
[5] = CSE-HRP, with co-corrector (2 μM)
[6] = test compound without co-corrector
[7] = with co-corrector (2 μM of 3-[(2R,4R)-4-({[1-(2,2-difluoro-1,3-benzodioxol-5-yl)cyclopropyl]carbonyl}amino)-7-methoxy-3,4-dihydro-2H-chromen-2-yl]benzoic acid)

T1 sequence (P13569 with tags, fused parts or gaps DEL508-508): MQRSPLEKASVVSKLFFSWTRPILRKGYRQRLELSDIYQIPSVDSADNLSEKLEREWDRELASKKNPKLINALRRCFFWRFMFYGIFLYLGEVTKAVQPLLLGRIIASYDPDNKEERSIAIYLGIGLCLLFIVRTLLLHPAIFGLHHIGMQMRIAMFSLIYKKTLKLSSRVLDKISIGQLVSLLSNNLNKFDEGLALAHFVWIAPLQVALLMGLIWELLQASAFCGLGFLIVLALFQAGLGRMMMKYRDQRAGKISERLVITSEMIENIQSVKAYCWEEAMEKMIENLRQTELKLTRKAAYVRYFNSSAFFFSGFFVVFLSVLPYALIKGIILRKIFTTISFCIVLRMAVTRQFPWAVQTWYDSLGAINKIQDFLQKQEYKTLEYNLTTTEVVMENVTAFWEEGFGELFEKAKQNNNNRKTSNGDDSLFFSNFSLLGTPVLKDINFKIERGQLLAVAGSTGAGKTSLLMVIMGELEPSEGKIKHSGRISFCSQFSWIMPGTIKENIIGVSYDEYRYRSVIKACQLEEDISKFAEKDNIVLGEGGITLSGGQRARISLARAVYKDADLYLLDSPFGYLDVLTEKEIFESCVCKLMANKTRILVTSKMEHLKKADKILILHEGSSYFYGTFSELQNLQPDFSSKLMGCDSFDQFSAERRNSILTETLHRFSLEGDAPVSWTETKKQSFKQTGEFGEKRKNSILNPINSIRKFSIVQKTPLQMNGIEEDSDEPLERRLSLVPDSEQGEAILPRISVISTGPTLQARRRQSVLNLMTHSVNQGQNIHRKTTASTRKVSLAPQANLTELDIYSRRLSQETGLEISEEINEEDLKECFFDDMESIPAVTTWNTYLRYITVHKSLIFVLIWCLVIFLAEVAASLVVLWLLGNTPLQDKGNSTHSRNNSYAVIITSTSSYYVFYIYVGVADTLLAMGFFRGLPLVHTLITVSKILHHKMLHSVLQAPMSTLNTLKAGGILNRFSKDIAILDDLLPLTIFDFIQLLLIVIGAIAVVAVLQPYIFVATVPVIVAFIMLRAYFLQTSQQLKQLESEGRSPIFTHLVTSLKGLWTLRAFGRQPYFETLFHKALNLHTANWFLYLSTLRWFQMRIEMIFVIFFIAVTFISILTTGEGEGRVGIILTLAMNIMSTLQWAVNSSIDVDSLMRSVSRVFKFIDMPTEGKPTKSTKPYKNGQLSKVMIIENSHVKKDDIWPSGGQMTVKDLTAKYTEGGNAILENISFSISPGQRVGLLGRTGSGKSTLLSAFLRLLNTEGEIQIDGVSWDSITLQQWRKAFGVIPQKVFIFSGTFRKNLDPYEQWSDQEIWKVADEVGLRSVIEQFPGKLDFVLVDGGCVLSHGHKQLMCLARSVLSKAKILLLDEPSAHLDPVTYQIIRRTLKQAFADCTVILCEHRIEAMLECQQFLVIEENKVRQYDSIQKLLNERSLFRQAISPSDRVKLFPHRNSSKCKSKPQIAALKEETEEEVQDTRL

EC50 [1] [µM]	EC50 [2] [µM]	Maximum % activity (with co-corrector) (with co-corrector (2 μM))	Emax (without co-corrector) [%]	EC50 [3] [µM]	EC50 [4] [µM]	Maximum % activity (with co-corrector) [5]	Emax (CSE-HRP, without co-corrector) [%]	Emax [6] [%]	Maximum % activity (with co-corrector) [7]	SMILES
< 1	< 1	+++ (≥350)	100 to 200	–	–	–	–	–	–	COc1nc(C(C)(C)C)ccc1CN[C@H]1[C@H](C(C)(C)C)[C@@H](C(=O)O)N(C(=O)C2CCCCC2)[C@H]1c1ccccc1 [Example 29, (2S,3S,4S,5S)-3-tert-butyl-4-{[(6-tert-butyl-2-methoxypyridin-3-yl)methyl]amino}-1-(cyclohexanecarbonyl)-5-phenylpyrrolidine-2-carboxylic acid]
–	–	–	–	1 to 10	< 1	+++ (≥350)	> 200	–	–	COc1cc(C(F)(F)F)ccc1CN[C@H]1[C@H](C(C)(C)OC)[C@@H](C(=O)O)N(C(=O)C2CCCCC2)[C@H]1c1ccccc1 [II-150]
–	–	–	–	1 to 10	1 to 10	+++ (≥350)	100 to 200	–	–	COc1cccc(Cl)c1CN[C@@H]1[C@@H](C(C)(C)C)[C@H](C(=O)O)N(C(=O)C2CCCCC2)[C@@H]1c1ccccc1 (racemic) [II-10]
1 to 10	1 to 10	–	–	–	–	–	–	> 200	+++ (≥350)	COc1ncc(C2CCC2)cc1CN[C@H]1[C@H](C(C)(C)C)[C@@H](C(=O)O)N(C(=O)C2CCCCO2)[C@H]1c1cccnc1N(C)C (stereo partly shown) [II-491]
–	–	–	–	1 to 10	1 to 10	+++ (≥350)	100 to 200	–	–	COc1ccc(C(F)(F)F)cc1CN[C@H]1[C@H](C(C)(C)OC)[C@@H](C(=O)O)N(C(=O)C2CCCCC2)[C@H]1c1ccccc1OC [II-295]
< 1	< 1	–	–	–	–	–	–	> 200	+++ (≥350)	COc1ccc(C(C)(C)C)cc1CN[C@H]1[C@H](C(C)(C)C)[C@@H](C(=O)O)N(C(=O)C2CCCCC2C(F)(F)F)[C@H]1c1ccccc1 (stereo partly shown) [II-378]
1 to 10	1 to 10	–	–	–	–	–	–	> 200	+++ (≥350)	COc1ccc(C(C)(C)C)cc1CN[C@H]1[C@H](C(C)(C)C)[C@@H](C(=O)O)N(C(=O)[C@H]2CCCCO2)[C@H]1c1ccccc1 [II-451]
–	–	–	–	1 to 10	< 1	+++ (≥350)	100 to 200	–	–	COc1ccc(C(C)(C)C)cc1CN[C@H]1[C@H](C(C)(C)C)[C@@H](C(=O)O)N(C(=O)C2CCCCC2)[C@H]1c1ccccc1OC [II-140]
–	–	–	–	1 to 10	1 to 10	+++ (≥350)	< 100	–	–	COc1ccc(C(F)(F)F)cc1CN[C@@H]1[C@@H](C(C)(C)C)[C@H](C(=O)O)N(C(=O)Cc2ccccc2)[C@@H]1c1ccccc1 (racemic) [II-32]
–	–	–	–	1 to 10	1 to 10	+++ (≥350)	> 200	–	–	COc1ncc(C2CCC2)cc1CN[C@H]1[C@H](C(C)(C)C)[C@@H](C(=O)O)N(C(=O)[C@@H]2CCCCO2)[C@H]1c1ccccc1C1CC1 [Example I-296]
1 to 10	1 to 10	–	–	–	–	–	–	> 200	+++ (≥350)	COc1cc(Cl)ccc1CN[C@@H]1[C@@H](C(C)(C)C)[C@H](C(=O)O)N(C(=O)C2CCCCC2)[C@@H]1c1ccccc1 (racemic) [III-30]
–	–	–	–	1 to 10	1 to 10	+++ (≥350)	100 to 200	–	–	COc1cc(Cl)ccc1CN[C@@H]1[C@@H](C(C)(C)C)[C@H](C(=O)O)N(C(=O)[C@@H]2CCC[C@@H](OC)C2)[C@@H]1c1ccccc1 (racemic) [II-38]
–	–	–	–	1 to 10	1 to 10	+++ (≥350)	> 200	–	–	COc1ccc(C(C)(C)C)cc1CN[C@H]1[C@H](C(C)(C)C)[C@@H](C(=O)O)N(C(=O)[C@@H]2CCCO2)[C@H]1c1ccccc1C [Example I-261]
1 to 10	1 to 10	–	–	–	–	–	–	100 to 200	+++ (≥350)	COc1ncc(C2CCC2)cc1CN[C@H]1[C@H](C(C)(C)C)[C@@H](C(=O)O)N(C(=O)[C@@H]2CCCO2)[C@H]1c1ccccc1C(F)F [II-597]
1 to 10	< 1	–	–	–	–	–	–	> 200	+++ (≥350)	COc1ccc(C(C)(C)C)cc1CN[C@H]1[C@H](C(C)(C)C)[C@@H](C(=O)O)N(C(=O)[C@@H]2CCC[C@@H](OC)C2)[C@H]1c1cccnc1N(C)C (relative stereo) [II-449]
< 1	< 1	+++ (≥350)	> 200	–	–	–	–	–	–	COc1ccc(C2CCC2)cc1CN[C@H]1[C@H](C(C)(C)C)[C@@H](C(=O)O)N(C(=O)C2CCCCC2)[C@H]1c1ccccc1 [Example I-68]

EC50 [1] [µM]	EC50 [2] [µM]	Maximum % activity (with co-corrector) (with co-corrector (2 μM))	Emax (without co-corrector) [%]	EC50 [3] [µM]	EC50 [4] [µM]	Maximum % activity (with co-corrector) [5]	Emax (CSE-HRP, without co-corrector) [%]	Emax [6] [%]	Maximum % activity (with co-corrector) [7]	SMILES
–	–	–	–	1 to 10	1 to 10	+++ (≥350)	100 to 200	–	–	COc1ccc(-c2cccc(C#N)c2)cc1CN[C@H]1[C@H](C(C)(C)C)[C@@H](C(=O)O)N(C(=O)C2CCCCC2)[C@H]1c1ccccc1 [II-281]
< 1	< 1	–	–	–	–	–	–	> 200	+++ (≥350)	COc1ccc2c(c1)CCC2C(=O)N1[C@H](C(=O)O)[C@@H](C(C)(C)C)[C@H](NCc2cc(C(C)(C)C)ccc2OC)[C@@H]1c1ccccc1 (stereo partly shown) [II-365]
–	–	–	–	1 to 10	< 1	+++ (≥350)	> 200	–	–	COc1ccc(C(C)(C)C)cc1CN[C@H]1[C@H](C(C)(C)C)[C@@H](C(=O)O)N(C(=O)[C@@H]2CCCO2)[C@H]1c1ccccc1Br [Example I-294]
1 to 10	< 1	–	–	–	–	–	–	< 100	+++ (≥350)	COc1ncc(C(F)(F)F)cc1CN[C@H]1[C@H](C(C)(C)C)[C@@H](C(=O)O)N(C(=O)[C@H]2CC[C@@H](c3ccccc3)O2)[C@H]1c1ccccc1 (relative stereo) [II-426]
1 to 10	1 to 10	+++ (≥350)	–	–	–	–	–	> 200	–	CCC(C)(C)c1ccc(OC)c(CN[C@H]2[C@H](C(C)(C)C)[C@@H](C(=O)O)N(C(=O)OC(C)C)[C@H]2c2cccnc2N(C)C)c1 [III-232]
1 to 10	< 1	+++ (≥350)	–	–	–	–	–	> 200	–	COc1ccc(C(C)(C)C)cc1CN[C@H]1[C@H](C(C)(C)C)[C@@H](C(=O)O)N(C(=O)CC2CCCCC2)[C@H]1c1ccccc1 [III-167]
1 to 10	1 to 10	–	–	–	–	–	–	> 200	+++ (≥350)	COc1ccc(C(C)(C)C)cc1CN[C@H]1[C@H](C(C)(C)C)[C@@H](C(=O)O)N(C(=O)C2CC3C(CC2C)C3(C)C)[C@H]1c1ccccc1 (stereo partly shown) [II-376]
1 to 10	< 1	+++ (≥350)	100 to 200	–	–	–	–	–	–	COc1ncc(C(F)(F)F)cc1CN[C@H]1[C@H](C(C)(C)C)[C@@H](C(=O)O)N(C(=O)C2CCCC(F)(F)C2)[C@H]1c1ccccc1 (stereo partly shown) [Example I-183]
–	–	–	–	1 to 10	1 to 10	+++ (≥350)	> 200	–	–	COc1ncc(Br)cc1CN[C@H]1[C@H](C(C)(C)C)[C@@H](C(=O)O)N(C(=O)OC(C)C)[C@H]1c1ccccc1 [II-170]
–	–	–	–	1 to 10	< 1	+++ (≥350)	< 100	–	–	COc1ccc(C(F)(F)F)cc1CN[C@H]1[C@H](C(C)(C)C)[C@@H](C(=O)O)N(C(=O)C2CCc3ccccc3O2)[C@H]1c1ccccc1 (stereo partly shown) [II-163]
–	–	–	–	1 to 10	1 to 10	+++ (≥350)	100 to 200	–	–	COc1ccc(C(C)(C)C)cc1CN[C@H]1[C@H](C(C)(C)C)[C@@H](C(=O)O)N(C(=O)C2COC(C(C)C)OC2)[C@H]1c1ccccc1 (stereo partly shown) [II-216]
–	–	–	–	< 1	< 1	+++ (≥350)	> 200	–	–	COc1ccc(C(C)(C)C)cc1CN[C@H]1[C@H](C(C)(C)C)[C@@H](C(=O)O)N(C(=O)C(OC)c2cccc(Cl)c2)[C@H]1c1ccccc1 (single isomer, unassigned) [II-270]
1 to 10	1 to 10	++ (≥150 and <350)	< 100	–	–	–	–	–	–	Cc1cc(C(F)(F)F)cc(N[C@H]2[C@H](C(C)(C)C)[C@@H](C(=O)O)N(C(=O)C3C4CCCC43)[C@H]2c2cccnc2N(C)C)n1 (stereo partly shown) [Example I-222]
1 to 10	1 to 10	–	–	–	–	–	–	100 to 200	+++ (≥350)	COc1ccc(OC(F)(F)F)cc1CN[C@H]1[C@H](C(C)(C)C)[C@@H](C(=O)O)N(C(=O)C2CCCCC2)[C@H]1c1cccnc1OC [II-524]
1 to 10	1 to 10	–	–	–	–	–	–	100 to 200	++ (≥150 and <350)	COc1ccc(Cl)cc1CN[C@H]1[C@H](C(C)(C)C)[C@@H](C(=O)O)N(C(=O)OC(C)C)[C@H]1c1cccnc1N(C)C [II-568]
